Experimental data from US20250387359A1, “COMPOUNDS AND METHODS FOR THE TREATMENT OF PARASITIC INFECTIONS” (THE BOARD OF TRUSTEES OF THE UNIVERSITY OF ILLINOIS, priority 2019, published 2025).
Entries after “also recorded” stand apart in the source; their conditions may differ. Like-named read-outs stand apart in the source and are kept apart here.

Tests used:
[1] = target: recombinant CpLDH protein (Cryptosporidium parvum, UniProt Q9GT92, F198L/K295E/R251K); conditions: previous studies; cited from earlier work
Chain of recombinant CpLDH protein (Q9GT92 whole entry F198L/K295E/R251K): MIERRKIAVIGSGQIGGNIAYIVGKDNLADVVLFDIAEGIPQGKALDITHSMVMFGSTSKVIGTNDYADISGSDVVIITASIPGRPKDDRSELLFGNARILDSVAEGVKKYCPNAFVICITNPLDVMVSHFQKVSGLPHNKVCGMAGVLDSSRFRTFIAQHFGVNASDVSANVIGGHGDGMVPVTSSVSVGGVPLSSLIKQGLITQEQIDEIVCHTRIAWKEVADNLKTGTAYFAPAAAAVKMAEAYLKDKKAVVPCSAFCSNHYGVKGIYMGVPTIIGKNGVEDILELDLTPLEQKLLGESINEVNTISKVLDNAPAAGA

Cryptosporidium parvum [2] = assay: In vitro anti-Cryptosporidium effect in HCT-8 cells (immunofluorescence assay); assay type: cell-based; conditions: HCT-8 cells; for IC50: Cryptosporidium parvum
Method: In vitro testing of the anti-Cryptosporidium effect of CpLDH inhibitors. HCT-8 cells were cultured in supplemented RPMI-1640 medium in 96-well plates. When the cells were confluent, old medium was replaced with fresh medium. To one set of wells, varying concentrations of recombinant CpLDH inhibitors (reconstituted in DMSO and diluted in RPMI medium) were added, while another set was left without inhibitors. Paromomycin was used as a positive control drug reconstituted in distilled sterile water. Then, 4×10^4 freshly excysted sporozoites were added to each well and incubated at 37° C. with 5% CO2. After 2 h incubation, varying concentrations of CpLDH inhibitors were added to the set of infected cells that were not treated initially. Control infected cells without inhibitors, but with added DMSO volumes equivalent to those used in the wells with inhibitors, were included. The cells were maintained in culture for a total of either 48 h or 72 h and processed for immunofluorescence assay as previously described (Int. J. Parasitol. 2017; 47(13), 867-874). Briefly, medium was decanted, and the cells fixed with methanol-acetic acid (9:1) for 2 minutes at room temperature. The cells were rehydrated and permeabilized by two successive washes with buffer (0.1% Triton X-100, 0.35 M NaCl, 0.13 M Tris-base, pH 7.6) and blocked with 5% normal goat serum, followed by staining with antibody to C. parvum (SporoGlo; Waterborn, Inc.) overnight at 4° C. The stained cells were washed twice with PBS, followed by water, and then imaged with an inverted fluorescence microscope. Fluorescence quantification was done using ImageJ version 1.37v software (NIH). Assays were performed in triplicate and repeated at least thrice.

C. parvum [3] = assay: Real-time PCR quantification of C. parvum DNA in fecal samples of infected mice; assay type: in vivo, Cryptosporidium parvum; conditions: for fecal C. parvum DNA load: Table 6, infected mice, multiplier printed in next cell; for reduction of shedding of C. parvum in mice feces vs untreated infected mice: day 7 post-infection
Method: In vivo testing of the anti-Cryptosporidium effect of CpLDH inhibitors. Gamma interferon knockout mice (B6.129S7-Ifng), 8 weeks of age, were purchased from Charles River, USA. The care and use of the mice was done following the guidelines of protocol number 17024 approved by the University of Illinois at Urbana-Champaign, USA. The animals were allowed to acclimatize for 1 week before experiments commenced. Stock solutions of recombinant CpLDH inhibitors reconstituted in DMSO were diluted in sterile distilled water to reduce the final amount of DMSO in the solution to less than 1% (v/v) before administering them to mice. Prior to testing the anti-Cryptosporidium effect of the inhibitors in mice, the tolerability of each inhibitor was tested by oral gavage using varying dosages (100-2000 mg/kg body weight) of each inhibitor in groups of mice (three mice for each dose) daily for 7 days. Mice were observed daily for signs of toxicity including changes from normal physical activity, respiration, body temperature, feeding, posture, fur condition or occurrence of death. […] The subsequent dosages of NSC10447 used in the mice infection assays were 250, 500 and 1000 mg/kg mouse body weight, while the NSC158011 dosages used were 100, 200 and 400 mg/kg mouse body weight. Mice were allocated to groups as follows: “Infected plus inhibitor treatment”; “Infected minus inhibitor treatment”; “Uninfected minus inhibitor treatment” and “Infected plus paromomycin treatment”. Each group contained at least three mice. Each mouse in the infection groups received 5,000 C. parvum oocysts (resuspended in 50 μl of PBS) by oral gavage. Mice were housed individually in cages lined with sterile gauze as bedding. One day post-infection (PI), daily oral gavage administration of recombinant CpLDH inhibitor or paromomycin commenced and continued for a total of 7 days. Untreated mice received an equivalent volume of sterile distilled water (containing DMSO equivalent to the amount administered in the inhibitor-treated group) by oral gavage. Fecal pellets were collected daily from each cage and placed in individual sterile 15 ml conical tubes. An equivalent volume of PBS containing a cocktail of penicillin (100 units/ml), streptomycin (100 μg/ml), chloramphenicol (34 μg/ml) and amphotericin (0.25 μg/ml) was added to the fecal samples and stored at 4° C. until use for quantification of C. parvum genomic DNA load. Three independent replicate infection assays were performed. At 9 days PI, mice were euthanized and 5 cm of the distal small intestine resected 2 cm anterior to the cecum and immediately submerged in 4% buffered formalin. The intestinal tissues were submitted for histopathology to the Veterinary Diagnostic Laboratory at the University of Illinois at Urbana-Champaign. Briefly, intestinal tissues preserved in 4% buffered formalin were washed in 70% ethanol and embedded in 1% agar and then processed for paraffin embedding. For hematoxylin and eosin staining, five μm transverse and cross sections were cut and processed and stained following standard procedures of the Veterinary Diagnostic Laboratory. Sections were imaged using a Zeiss microscope and images captured with a color camera.
Quantification of C. parvum shed in mice feces. Genomic DNA was extracted from individual fecal samples collected from mice at different days as described above. For each sample, 220 mg of homogenized feces were used to extract genomic DNA using the QIAamp PowerFecal DNA Kit (Qiagen, USA) following the manufacturer's instructions. Quantification of the amount of C. parvum 18s rRNA gene (GenBank accession number AF164102) was performed essentially as described previously (Int. J. Parasitol. 2018; 48(8), 649-656). Briefly, primers were used to generate a 240 bp amplicon from C. parvum genomic DNA by conventional PCR. […]

C. parvum [4] = assay: Histopathology of distal small intestine of C. parvum infected mice; assay type: in vivo, Cryptosporidium parvum; conditions: lower small intestine, H&E, NSC158011 400 mg/kg, NSC10447 250, 500 or 1000 mg/kg, paromomycin 100 mg/kg
Method: In vivo testing of the anti-Cryptosporidium effect of CpLDH inhibitors. Gamma interferon knockout mice (B6.129S7-Ifng), 8 weeks of age, were purchased from Charles River, USA. The care and use of the mice was done following the guidelines of protocol number 17024 approved by the University of Illinois at Urbana-Champaign, USA. The animals were allowed to acclimatize for 1 week before experiments commenced. Stock solutions of recombinant CpLDH inhibitors reconstituted in DMSO were diluted in sterile distilled water to reduce the final amount of DMSO in the solution to less than 1% (v/v) before administering them to mice. Prior to testing the anti-Cryptosporidium effect of the inhibitors in mice, the tolerability of each inhibitor was tested by oral gavage using varying dosages (100-2000 mg/kg body weight) of each inhibitor in groups of mice (three mice for each dose) daily for 7 days. Mice were observed daily for signs of toxicity including changes from normal physical activity, respiration, body temperature, feeding, posture, fur condition or occurrence of death. […] The subsequent dosages of NSC10447 used in the mice infection assays were 250, 500 and 1000 mg/kg mouse body weight, while the NSC158011 dosages used were 100, 200 and 400 mg/kg mouse body weight. Mice were allocated to groups as follows: “Infected plus inhibitor treatment”; “Infected minus inhibitor treatment”; “Uninfected minus inhibitor treatment” and “Infected plus paromomycin treatment”. Each group contained at least three mice. Each mouse in the infection groups received 5,000 C. parvum oocysts (resuspended in 50 μl of PBS) by oral gavage. Mice were housed individually in cages lined with sterile gauze as bedding. […] An equivalent volume of PBS containing a cocktail of penicillin (100 units/ml), streptomycin (100 μg/ml), chloramphenicol (34 μg/ml) and amphotericin (0.25 μg/ml) was added to the fecal samples and stored at 4° C. until use for quantification of C. parvum genomic DNA load. […]

Cryptosporidium parvum [5] = conditions: previously reported by others; read-out: IC50, inhibition of C. parvum growth in HCT-8 cells; cited from earlier work
[6] = Compound cytotoxicity assay (WST-1) in HCT-8 cells; assay type: cell-based, human; conditions: human; HCT-8 cells, 24 h, WST-1
Method: Compound cytotoxicity assay. […] A colorimetric assay using the cell proliferation reagent WST-1 (Roche, USA) for the quantification of cell viability was performed. […] When the cells were confluent, the old medium was replaced with fresh medium with or without varying concentrations of chemical compound. After 24 h of culture, 10 μl of the cell proliferation reagent WST-1, (for quantification of cell viability) was added to each well, mixed and the plates incubated for 1 h at 37 C with 5% CO2 in the dark. […] Molecular Devices, USA).

Tolerability in mice = assay type: in vivo; conditions: daily oral gavage for 7 days, mice
Method: In vivo testing of the anti-Cryptosporidium effect of CpLDH inhibitors. Gamma interferon knockout mice (B6.129S7-Ifng), 8 weeks of age, were purchased from Charles River, USA. The care and use of the mice was done following the guidelines of protocol number 17024 approved by the University of Illinois at Urbana-Champaign, USA. The animals were allowed to acclimatize for 1 week before experiments commenced. Stock solutions of recombinant CpLDH inhibitors reconstituted in DMSO were diluted in sterile distilled water to reduce the final amount of DMSO in the solution to less than 1% (v/v) before administering them to mice. Prior to testing the anti-Cryptosporidium effect of the inhibitors in mice, the tolerability of each inhibitor was tested by oral gavage using varying dosages (100-2000 mg/kg body weight) of each inhibitor in groups of mice (three mice for each dose) daily for 7 days. Mice were observed daily for signs of toxicity including changes from normal physical activity, respiration, body temperature, feeding, posture, fur condition or occurrence of death. […] An equivalent volume of PBS containing a cocktail of penicillin (100 units/ml), streptomycin (100 μg/ml), chloramphenicol (34 μg/ml) and amphotericin (0.25 μg/ml) was added to the fecal samples and stored at 4° C. until use for quantification of C. parvum genomic DNA load. […]

[7] = target: T1, Plasmodium falciparum phosphoethanolamine methyltransferase enzyme (Plasmodium falciparum, UniProt Q8IDQ9); conditions: previously shown; cited from earlier work
T1 sequence (Q8IDQ9 1-266): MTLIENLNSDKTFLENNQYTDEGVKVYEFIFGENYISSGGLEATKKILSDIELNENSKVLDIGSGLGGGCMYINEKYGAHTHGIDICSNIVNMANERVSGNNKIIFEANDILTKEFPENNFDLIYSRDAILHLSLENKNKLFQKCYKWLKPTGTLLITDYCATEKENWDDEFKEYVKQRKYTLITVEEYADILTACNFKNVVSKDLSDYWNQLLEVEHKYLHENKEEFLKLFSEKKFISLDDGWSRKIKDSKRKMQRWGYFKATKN

Plasmodium falciparum = conditions: previously shown; cited from earlier work

For `CCCc1c(O)c(O)c(C(=O)O)c2cc(Cc3ccccc3)c(C)cc12` [FX11], the “inhibition of the enzymatic activity of CpLDH” value [1] is given as “able to inhibit the enzymatic activity of CpLDH”.

In the case of `NC[C@@H]1O[C@H](O[C@H]2[C@@H](O)[C@H](O[C@@H]3[C@@H](O)[C@H](N)C[C@H](N)[C@H]3O[C@H]3O[C@H](CO)[C@@H](O)[C@H](O)[C@H]3N)O[C@@H]2CO)[C@H](N)[C@@H](O)[C@@H]1O` [paromomycin, reference compound], the IC50 (Cryptosporidium parvum [2]; 48 h post-infection, positive control, read-out: IC50, inhibition of C. parvum growth) is reported as 450 µM, the IC50 (Cryptosporidium parvum [2]; 72 h post-infection, positive control, read-out: IC50, inhibition of C. parvum growth) is reported as 400 µM and the “fecal C. parvum DNA load” value (C. parvum [3]; paromomycin 100 mg/kg, DPI 1) is reported as 3.1 ± 0.2 ×10^−10 ng/μL. The “fecal C. parvum DNA load” value (C. parvum [3]; paromomycin 100 mg/kg, DPI 2) was 6.6 ± 0.5 ×10^−9 ng/μL, the “fecal C. parvum DNA load” value (C. parvum [3]; paromomycin 100 mg/kg, DPI 3) was 5.2 ± 0.3 ×10^−9 ng/μL and the “fecal C. parvum DNA load” value (C. parvum [3]; paromomycin 100 mg/kg, DPI 4) was 4.7 ± 0.2 ×10^−8 ng/μL. The “fecal C. parvum DNA load” value (C. parvum [3]; paromomycin 100 mg/kg, DPI 5) was 5.0 ± 0.6 ×10^−7 ng/μL, the “fecal C. parvum DNA load” value (C. parvum [3]; paromomycin 100 mg/kg, DPI 6) was 4.8 ± 0.1 ×10^−6 ng/μL and the “fecal C. parvum DNA load” value (C. parvum [3]; paromomycin 100 mg/kg, DPI 7) was 5.1 ± 0.8 ×10^−6 ng/μL. The “fecal C. parvum DNA load” value (C. parvum [3]; paromomycin 100 mg/kg, DPI 8) was 5.4 ± 0.1 ×10^−6 ng/μL, the “reduction of shedding of C. parvum in mice feces vs untreated infected mice” value (C. parvum [3]; paromomycin 100 mg/kg) was “about 3000 fold” and the “histopathology of intestinal epithelium and villi” value (C. parvum [4]) was “intact intestinal epithelium with prominent villi”. For the same molecule, the IC50 (Cryptosporidium parvum [5]) was 711 µM.

For `S=C(CSc1ccccc1)Nc1cccc2ccccc12` [NSC158011], the IC50 at 24 h [6] was 149 µM, the “effect on parasite growth at 40 μM” value (Cryptosporidium parvum [2]; 48 h post-infection, 40 μM) was “blocking parasite growth almost completely” and the IC50 (Cryptosporidium parvum [2]; 48 h, compound added at the time of infection, read-out: IC50, inhibition of C. parvum growth at 48 h p.i.) was 14.9 µM. It also gave an IC50 (Cryptosporidium parvum [2]; 72 h, compound added at the time of infection, read-out: IC50, inhibition of C. parvum growth at 72 h p.i.) of 15.6 µM, an IC50 (Cryptosporidium parvum [2]; compound added 2 h post-infection, read-out: IC50, inhibition of C. parvum growth at 48 h p.i. (2 h)) of 15.8 µM and an IC50 (Cryptosporidium parvum [2]; compound added 2 h post-infection, read-out: IC50, inhibition of C. parvum growth at 72 h p.i. (2 h)) of 16.5 µM. For the same molecule, the “highest tolerable dose (no toxicity signs)” value (Tolerability in mice) was 400 mg/kg, the “efficacy lower than paromomycin” value (C. parvum [3]; NSC158011 200 mg/kg, last three days of treatment) was “about 10 fold” and the “shedding of C. parvum oocysts in mice feces” value (C. parvum [3]; NSC158011 400 mg/kg) was “significantly (P<. 0.05) reduced”. For the same molecule, the “reduction of shedding of C. parvum in mice feces vs untreated infected mice” value (C. parvum [3]; NSC158011 400 mg/kg) was “about 3000 fold”, the “histopathology of intestinal epithelium and villi” value (C. parvum [4]) was “maintained intact intestinal mucosa and villi; also recorded: intact intestinal epithelium with prominent villi” and the “inhibition of catalytic activity of P. falciparum phosphoethanolamine methyltransferase” value [7] was “inhibit the catalytic activity”. For the same molecule, the “inhibition of in vitro intracellular growth of P. falciparum” value (Plasmodium falciparum) was “inhibit in vitro intracellular growth of the parasite”.
